Experimental data: patent publication US9809578B2, “Pyrazolyl urea, thiourea, guanidine and cyanoguanidine compounds as trkA kinase inhibitors” (Array BioPharma Inc., priority 2012, dated 2017)

Key:
Type in all cases: biochemical
Details in all cases: 10 μM, ATP near Km
PKCeta = molecular target: T1, PKCeta (Homo sapiens, UniProt P24723); test: KinaseProfiler PKCeta
T1 construct: purchased Millipore, Inc. (KinaseProfiler service)
Description: (§1) The compound was run in duplicate at a concentration of ATP near the Km for each individual kinase according to Millipore's specifications.

DMPK = molecular target: T2, DMPK (Homo sapiens, UniProt Q09013); test: KinaseProfiler DMPK
T2 construct: purchased Millipore, Inc. (KinaseProfiler service)
Description: as §1

MSK2 = molecular target: T3, MSK2 (Homo sapiens, UniProt O75676); test: KinaseProfiler MSK2
T3 construct: purchased Millipore, Inc. (KinaseProfiler service)
Description: as §1

MAP4K2 = molecular target: T4, MAP4K2 (Homo sapiens, UniProt Q12851); test: KinaseProfiler MAP4K2
T4 construct: purchased Millipore, Inc. (KinaseProfiler service)
Description: as §1

Flt3 = molecular target: T5, Flt3 (Homo sapiens, UniProt P36888); test: KinaseProfiler Flt3
T5 construct: purchased Millipore, Inc. (KinaseProfiler service)
Description: as §1

PRK2 = molecular target: T6, PRK2 (Homo sapiens, UniProt Q16513); test: KinaseProfiler PRK2
T6 construct: purchased Millipore, Inc. (KinaseProfiler service)
Description: as §1

MAPKAP-K3 = molecular target: T7, MAPKAP-K3 (Homo sapiens, UniProt Q16644); test: KinaseProfiler MAPKAP-K3
T7 construct: purchased Millipore, Inc. (KinaseProfiler service)
Description: as §1

FGFR2 = molecular target: T8, FGFR2 (Homo sapiens, UniProt P21802); test: KinaseProfiler FGFR2
T8 construct: purchased Millipore, Inc. (KinaseProfiler service)
Description: as §1

ErbB4 = molecular target: T9, ErbB4 (Homo sapiens, UniProt Q15303); test: KinaseProfiler ErbB4
T9 construct: purchased Millipore, Inc. (KinaseProfiler service)
Description: as §1

PDK1 = molecular target: T10, PDK1 (Homo sapiens, UniProt O15530); test: KinaseProfiler PDK1
T10 construct: purchased Millipore, Inc. (KinaseProfiler service)
Description: as §1

Pim-3 = molecular target: T11, Pim-3 (Homo sapiens, UniProt Q86V86); test: KinaseProfiler Pim-3
T11 construct: purchased Millipore, Inc. (KinaseProfiler service)
Description: as §1

eEF-2K = molecular target: T12, eEF-2K (Homo sapiens, UniProt O00418); test: KinaseProfiler eEF-2K
T12 construct: purchased Millipore, Inc. (KinaseProfiler service)
Description: as §1

BrSK2 = molecular target: T13, BrSK2 (Homo sapiens, UniProt Q8IWQ3); test: KinaseProfiler BrSK2
T13 construct: purchased Millipore (KinaseProfiler service)
Description: as §1

ARK5 = molecular target: T14, ARK5 (Homo sapiens, UniProt O60285); test: KinaseProfiler ARK5
T14 construct: purchased Millipore (KinaseProfiler service)
Description: as §1

BrSK1 = molecular target: T15, BrSK1 (Homo sapiens, UniProt Q8TDC3); test: KinaseProfiler BrSK1
T15 construct: purchased Millipore (KinaseProfiler service)
Description: as §1

MINK = molecular target: T16, MINK (Homo sapiens, UniProt Q8N4C8); test: KinaseProfiler MINK
T16 construct: purchased Millipore, Inc. (KinaseProfiler service)
Description: as §1

FGFR3 = molecular target: T17, FGFR3 (Homo sapiens, UniProt P22607); test: KinaseProfiler FGFR3
T17 construct: purchased Millipore, Inc. (KinaseProfiler service)
Description: as §1

CDK5/p35 = molecular target: T18, CDK5/p35 (Homo sapiens, UniProt Q00535); test: KinaseProfiler CDK5/p35
T18 construct: purchased Millipore, Inc. (KinaseProfiler service)
Description: as §1

SRC = molecular target: T19, SRC (Homo sapiens, UniProt P12931); test: KinaseProfiler SRC
T19 construct: purchased Millipore, Inc. (KinaseProfiler service)
Description: as §1

PRKG1beta = molecular target: T20, PRKG1beta (Homo sapiens, UniProt Q13976); test: KinaseProfiler PRKG1beta
T20 construct: purchased Millipore, Inc. (KinaseProfiler service)
Description: as §1

Pim-1 = molecular target: T21, Pim-1 (Homo sapiens, UniProt P11309); test: KinaseProfiler Pim-1
T21 construct: purchased Millipore, Inc. (KinaseProfiler service)
Description: as §1

AKT1 = molecular target: T22, AKT1 (Homo sapiens, UniProt P31749); test: KinaseProfiler AKT1
T22 construct: purchased Millipore (KinaseProfiler service)
Description: as §1

JNK2alpha2 = molecular target: T23, JNK2alpha2 (Homo sapiens, UniProt P45984); test: KinaseProfiler JNK2alpha2
T23 construct: purchased Millipore, Inc. (KinaseProfiler service)
Description: as §1

CAMK4 = molecular target: T24, CAMK4 (Homo sapiens, UniProt Q16566); test: KinaseProfiler CAMK4
T24 construct: purchased Millipore (KinaseProfiler service)
Description: as §1

EphA5 = molecular target: T25, EphA5 (Homo sapiens, UniProt P54756); test: KinaseProfiler EphA5
T25 construct: purchased Millipore, Inc. (KinaseProfiler service)
Description: as §1

IRAK4 = molecular target: T26, IRAK4 (Homo sapiens, UniProt Q9NWZ3); test: KinaseProfiler IRAK4
T26 construct: purchased Millipore, Inc. (KinaseProfiler service)
Description: as §1

EGFR = molecular target: T27, EGFR (Homo sapiens, UniProt P00533); test: KinaseProfiler EGFR
T27 construct: purchased Millipore, Inc. (KinaseProfiler service)
Description: as §1

JNK3 = molecular target: T28, JNK3 (Homo sapiens, UniProt P53779); test: KinaseProfiler JNK3
T28 construct: purchased Millipore, Inc. (KinaseProfiler service)
Description: as §1

Yes = molecular target: T29, Yes (Homo sapiens, UniProt P07947); test: KinaseProfiler Yes
T29 construct: purchased Millipore, Inc. (KinaseProfiler service)
Description: as §1

JNK1alpha1 = molecular target: T30, JNK1alpha1 (Homo sapiens, UniProt P45983); test: KinaseProfiler JNK1alpha1
T30 construct: purchased Millipore, Inc. (KinaseProfiler service)
Description: as §1

CHK2 = molecular target: T31, CHK2 (Homo sapiens, UniProt O96017); test: KinaseProfiler CHK2
T31 construct: purchased Millipore, Inc. (KinaseProfiler service)
Description: as §1

p38gamma = molecular target: T32, p38gamma (Homo sapiens, UniProt P53778); test: KinaseProfiler p38gamma
T32 construct: purchased Millipore, Inc. (KinaseProfiler service)
Description: as §1

AURKA = molecular target: T33, AURKA (Homo sapiens, UniProt O14965); test: KinaseProfiler AURKA
T33 construct: purchased Millipore (KinaseProfiler service)
Description: as §1

EphB3 = molecular target: T34, EphB3 (Homo sapiens, UniProt P54753); test: KinaseProfiler EphB3
T34 construct: purchased Millipore, Inc. (KinaseProfiler service)
Description: as §1

Fgr = molecular target: T35, Fgr (Homo sapiens, UniProt P09769); test: KinaseProfiler Fgr
T35 construct: purchased Millipore, Inc. (KinaseProfiler service)
Description: as §1

WNK3 = molecular target: T36, WNK3 (Homo sapiens, UniProt Q9BYP7); test: KinaseProfiler WNK3
T36 construct: purchased Millipore, Inc. (KinaseProfiler service)
Description: as §1

Syk = molecular target: T37, Syk (Homo sapiens, UniProt P43405); test: KinaseProfiler Syk
T37 construct: purchased Millipore, Inc. (KinaseProfiler service)
Description: as §1

PKCalpha = molecular target: T38, PKCalpha (Homo sapiens, UniProt P17252); test: KinaseProfiler PKCalpha
T38 construct: purchased Millipore, Inc. (KinaseProfiler service)
Description: as §1

Axl = molecular target: T39, Axl (Homo sapiens, UniProt P30530); test: KinaseProfiler Axl
T39 construct: purchased Millipore (KinaseProfiler service)
Description: as §1

MKK6 = molecular target: T40, MKK6 (Homo sapiens, UniProt P52564); test: KinaseProfiler MKK6
T40 construct: purchased Millipore, Inc. (KinaseProfiler service)
Description: as §1

ROCK-II = molecular target: T41, ROCK-II (Homo sapiens, UniProt O75116); test: KinaseProfiler ROCK-II
T41 construct: purchased Millipore, Inc. (KinaseProfiler service)
Description: as §1

EphB2 = molecular target: T42, EphB2 (Homo sapiens, UniProt P29323); test: KinaseProfiler EphB2
T42 construct: purchased Millipore, Inc. (KinaseProfiler service)
Description: as §1

NEK11 = molecular target: T43, NEK11 (Homo sapiens, UniProt Q8NG66); test: KinaseProfiler NEK11
T43 construct: purchased Millipore, Inc. (KinaseProfiler service)
Description: as §1

T15 sequence (Q8TDC3 whole entry): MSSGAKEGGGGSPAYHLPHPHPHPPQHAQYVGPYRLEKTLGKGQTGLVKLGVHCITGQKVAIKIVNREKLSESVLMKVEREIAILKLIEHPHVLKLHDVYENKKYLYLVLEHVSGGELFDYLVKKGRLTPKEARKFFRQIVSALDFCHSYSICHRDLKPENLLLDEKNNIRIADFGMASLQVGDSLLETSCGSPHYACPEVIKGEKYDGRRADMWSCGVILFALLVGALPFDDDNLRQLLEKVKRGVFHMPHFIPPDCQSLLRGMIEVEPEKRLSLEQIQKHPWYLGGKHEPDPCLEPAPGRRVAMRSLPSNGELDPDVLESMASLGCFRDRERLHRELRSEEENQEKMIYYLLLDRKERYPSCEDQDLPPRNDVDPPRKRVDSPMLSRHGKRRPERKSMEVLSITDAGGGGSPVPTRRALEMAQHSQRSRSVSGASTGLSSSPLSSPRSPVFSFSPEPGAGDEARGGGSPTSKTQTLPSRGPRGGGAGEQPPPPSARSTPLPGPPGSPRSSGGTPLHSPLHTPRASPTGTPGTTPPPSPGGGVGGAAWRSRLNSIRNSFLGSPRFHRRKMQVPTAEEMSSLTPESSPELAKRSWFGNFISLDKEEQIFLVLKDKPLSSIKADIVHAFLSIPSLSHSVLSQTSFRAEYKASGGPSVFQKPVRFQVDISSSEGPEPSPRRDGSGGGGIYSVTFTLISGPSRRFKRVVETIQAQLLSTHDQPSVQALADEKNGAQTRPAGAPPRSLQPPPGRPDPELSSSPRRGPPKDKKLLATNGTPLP
T3 sequence (O75676 whole entry): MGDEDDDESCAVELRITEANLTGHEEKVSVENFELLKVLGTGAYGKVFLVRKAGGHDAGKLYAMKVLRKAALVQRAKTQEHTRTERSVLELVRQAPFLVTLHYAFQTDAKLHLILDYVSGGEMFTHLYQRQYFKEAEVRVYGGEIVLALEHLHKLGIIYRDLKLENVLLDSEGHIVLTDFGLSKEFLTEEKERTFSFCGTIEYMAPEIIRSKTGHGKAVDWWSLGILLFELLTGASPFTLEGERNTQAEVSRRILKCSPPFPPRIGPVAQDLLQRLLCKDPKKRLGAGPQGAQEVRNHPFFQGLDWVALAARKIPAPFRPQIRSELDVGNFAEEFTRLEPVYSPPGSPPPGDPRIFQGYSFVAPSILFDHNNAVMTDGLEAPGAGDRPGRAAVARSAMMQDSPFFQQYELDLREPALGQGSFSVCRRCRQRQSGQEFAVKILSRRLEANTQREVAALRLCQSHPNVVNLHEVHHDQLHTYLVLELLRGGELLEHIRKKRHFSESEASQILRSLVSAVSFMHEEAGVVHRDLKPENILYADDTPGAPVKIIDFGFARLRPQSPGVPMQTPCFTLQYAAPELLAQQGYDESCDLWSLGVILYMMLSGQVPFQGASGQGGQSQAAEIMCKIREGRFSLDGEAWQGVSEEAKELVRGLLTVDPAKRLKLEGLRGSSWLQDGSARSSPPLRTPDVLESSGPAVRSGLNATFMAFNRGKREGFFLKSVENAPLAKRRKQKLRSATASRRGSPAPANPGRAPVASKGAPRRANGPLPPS
T20 sequence (Q13976 1-686 isoform Q13976-2): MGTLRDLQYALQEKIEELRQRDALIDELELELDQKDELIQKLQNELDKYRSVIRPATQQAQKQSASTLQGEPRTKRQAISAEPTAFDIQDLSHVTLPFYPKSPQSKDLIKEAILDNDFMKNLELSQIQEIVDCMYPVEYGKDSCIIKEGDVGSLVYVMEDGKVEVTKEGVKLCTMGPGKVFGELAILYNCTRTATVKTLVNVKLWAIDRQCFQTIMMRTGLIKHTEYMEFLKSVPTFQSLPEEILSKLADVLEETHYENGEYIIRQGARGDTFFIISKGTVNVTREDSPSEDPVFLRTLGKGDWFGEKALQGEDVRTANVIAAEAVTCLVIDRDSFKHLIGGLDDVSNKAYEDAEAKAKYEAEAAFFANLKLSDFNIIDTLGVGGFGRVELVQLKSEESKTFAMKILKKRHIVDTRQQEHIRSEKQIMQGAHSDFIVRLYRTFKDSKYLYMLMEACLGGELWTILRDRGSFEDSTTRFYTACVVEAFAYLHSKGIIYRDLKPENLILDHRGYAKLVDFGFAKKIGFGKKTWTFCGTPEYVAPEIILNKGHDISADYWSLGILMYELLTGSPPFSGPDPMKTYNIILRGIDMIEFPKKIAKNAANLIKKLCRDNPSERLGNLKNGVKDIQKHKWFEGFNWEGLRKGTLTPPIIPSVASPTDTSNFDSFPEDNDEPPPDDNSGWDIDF
T31 sequence (O96017 whole entry): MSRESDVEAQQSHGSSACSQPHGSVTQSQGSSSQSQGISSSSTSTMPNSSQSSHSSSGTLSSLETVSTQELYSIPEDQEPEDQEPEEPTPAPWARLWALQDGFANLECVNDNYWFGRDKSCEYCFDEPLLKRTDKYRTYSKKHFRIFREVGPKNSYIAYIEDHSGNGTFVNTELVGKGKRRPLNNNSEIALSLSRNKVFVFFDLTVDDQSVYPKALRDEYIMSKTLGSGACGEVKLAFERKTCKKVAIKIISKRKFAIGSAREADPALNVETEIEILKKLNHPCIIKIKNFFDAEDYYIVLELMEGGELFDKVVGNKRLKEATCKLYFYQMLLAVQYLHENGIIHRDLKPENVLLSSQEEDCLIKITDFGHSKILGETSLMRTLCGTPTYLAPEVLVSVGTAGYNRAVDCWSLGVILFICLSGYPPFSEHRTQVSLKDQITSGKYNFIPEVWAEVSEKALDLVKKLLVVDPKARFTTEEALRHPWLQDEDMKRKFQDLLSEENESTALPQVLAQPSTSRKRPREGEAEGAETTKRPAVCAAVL
T41 sequence (O75116 whole entry): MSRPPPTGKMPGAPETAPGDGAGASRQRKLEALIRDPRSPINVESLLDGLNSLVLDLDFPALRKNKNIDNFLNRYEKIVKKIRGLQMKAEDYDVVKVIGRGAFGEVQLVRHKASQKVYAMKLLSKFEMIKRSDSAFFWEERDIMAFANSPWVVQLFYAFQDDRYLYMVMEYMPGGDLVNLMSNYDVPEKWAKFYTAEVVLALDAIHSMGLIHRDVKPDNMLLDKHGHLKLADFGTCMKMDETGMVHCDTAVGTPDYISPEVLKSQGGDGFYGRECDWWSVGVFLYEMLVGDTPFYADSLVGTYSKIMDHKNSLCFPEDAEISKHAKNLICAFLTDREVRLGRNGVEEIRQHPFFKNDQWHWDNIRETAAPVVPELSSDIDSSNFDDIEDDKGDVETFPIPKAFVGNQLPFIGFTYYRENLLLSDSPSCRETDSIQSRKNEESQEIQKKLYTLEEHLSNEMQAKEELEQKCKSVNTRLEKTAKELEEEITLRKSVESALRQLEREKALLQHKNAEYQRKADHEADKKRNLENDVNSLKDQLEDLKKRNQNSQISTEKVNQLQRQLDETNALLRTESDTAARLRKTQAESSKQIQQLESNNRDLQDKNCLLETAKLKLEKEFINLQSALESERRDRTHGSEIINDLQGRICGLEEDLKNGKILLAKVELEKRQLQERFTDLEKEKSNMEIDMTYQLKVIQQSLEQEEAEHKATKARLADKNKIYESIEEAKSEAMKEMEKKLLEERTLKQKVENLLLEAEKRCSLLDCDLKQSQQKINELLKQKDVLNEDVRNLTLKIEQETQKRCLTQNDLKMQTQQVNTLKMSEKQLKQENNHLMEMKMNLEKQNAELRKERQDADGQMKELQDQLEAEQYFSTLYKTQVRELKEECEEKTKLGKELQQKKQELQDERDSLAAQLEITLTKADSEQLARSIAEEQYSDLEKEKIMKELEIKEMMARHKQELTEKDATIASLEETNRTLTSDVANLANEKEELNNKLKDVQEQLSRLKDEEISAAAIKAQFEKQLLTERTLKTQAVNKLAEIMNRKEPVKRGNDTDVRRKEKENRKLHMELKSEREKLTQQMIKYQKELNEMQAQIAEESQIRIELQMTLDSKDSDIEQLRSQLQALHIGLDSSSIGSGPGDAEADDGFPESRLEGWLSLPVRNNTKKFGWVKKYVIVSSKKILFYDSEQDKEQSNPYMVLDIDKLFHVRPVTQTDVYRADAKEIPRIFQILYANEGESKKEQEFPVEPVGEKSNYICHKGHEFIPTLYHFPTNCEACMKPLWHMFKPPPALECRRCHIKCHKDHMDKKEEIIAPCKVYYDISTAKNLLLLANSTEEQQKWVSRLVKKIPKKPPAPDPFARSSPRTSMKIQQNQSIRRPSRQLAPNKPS
T17 sequence (P22607 23-806): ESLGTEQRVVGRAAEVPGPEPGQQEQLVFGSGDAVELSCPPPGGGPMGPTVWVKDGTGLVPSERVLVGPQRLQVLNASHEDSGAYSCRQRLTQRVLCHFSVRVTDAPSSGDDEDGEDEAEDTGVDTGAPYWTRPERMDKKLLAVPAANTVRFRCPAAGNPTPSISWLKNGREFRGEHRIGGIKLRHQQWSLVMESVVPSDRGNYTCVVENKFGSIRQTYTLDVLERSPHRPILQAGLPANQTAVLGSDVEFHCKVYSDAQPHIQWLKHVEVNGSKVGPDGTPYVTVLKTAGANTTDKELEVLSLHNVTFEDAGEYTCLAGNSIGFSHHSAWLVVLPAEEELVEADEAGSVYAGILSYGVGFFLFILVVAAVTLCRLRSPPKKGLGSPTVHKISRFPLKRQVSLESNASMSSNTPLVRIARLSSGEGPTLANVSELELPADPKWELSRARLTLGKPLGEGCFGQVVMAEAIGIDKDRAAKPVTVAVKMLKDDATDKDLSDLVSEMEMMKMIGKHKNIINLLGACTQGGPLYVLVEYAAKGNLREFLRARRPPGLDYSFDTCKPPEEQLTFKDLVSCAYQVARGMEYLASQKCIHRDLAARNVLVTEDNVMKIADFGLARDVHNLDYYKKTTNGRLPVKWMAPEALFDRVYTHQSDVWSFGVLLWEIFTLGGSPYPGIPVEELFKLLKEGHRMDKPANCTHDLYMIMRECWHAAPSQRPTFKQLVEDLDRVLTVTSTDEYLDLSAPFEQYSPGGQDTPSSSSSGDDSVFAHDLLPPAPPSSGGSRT

Cc1c(-c2cnn(C)c2)nn(-c2ccccc2)c1NC(=O)Nc1cc(C(F)(F)F)nn1-c1ccccc1 [Example 3, 1-(1′,4-dimethyl-1-phenyl-1H,1′H-[3,4′-bipyrazol]-5-yl)-3-(1-phenyl-3-(trifluoromethyl)-1H-pyrazol-5-yl)urea]
Avg POC (PKCeta): 94.5 POC
Avg POC (DMPK): 105 POC
Avg POC (MSK2): 119.5 POC
Avg POC (MAP4K2): 113 POC
Avg POC (Flt3): 71 POC
Avg POC (PRK2): 106.5 POC
Avg POC (MAPKAP-K3): 128.5 POC
Avg POC (FGFR2): 110 POC
Avg POC (ErbB4): 126 POC
Avg POC (PDK1): 123 POC
Avg POC (Pim-3): 107.5 POC
Avg POC (eEF-2K): 148.5 POC
Avg POC (BrSK2): 135 POC
Avg POC (ARK5): 92.5 POC
Avg POC (BrSK1): 127 POC
Avg POC (MINK): 105 POC
Avg POC (FGFR3): 116.5 POC
Avg POC (CDK5/p35): 110.5 POC
Avg POC (SRC): 102.5 POC
Avg POC (PRKG1beta): 98 POC
Avg POC (Pim-1): 119.5 POC
Avg POC (AKT1): 103.5 POC
Avg POC (JNK2alpha2): 99.5 POC
Avg POC (CAMK4): 147.5 POC
Avg POC (EphA5): 116 POC
Avg POC (IRAK4): 131.5 POC
Avg POC (EGFR): 97.5 POC
Avg POC (JNK3): 124.5 POC
Avg POC (Yes): 114 POC
Avg POC (JNK1alpha1): 111.5 POC
Avg POC (CHK2): 126.5 POC
Avg POC (p38gamma): 114.5 POC
Avg POC (AURKA): 121 POC
Avg POC (EphB3): 63 POC
Avg POC (Fgr): 118 POC
Avg POC (WNK3): 108 POC
Avg POC (Syk): 101 POC
Avg POC (PKCalpha): 104 POC
Avg POC (Axl): 117 POC
Avg POC (MKK6): 132.5 POC
Avg POC (ROCK-II): 110 POC
Avg POC (EphB2): 118.5 POC
Avg POC (NEK11): 110 POC
